In patent publication US4367226A, “N-Sugar compounds, compositions and uses thereof” (priority 1980, dated 1983):
Converted amounts (≈) assume the structure as drawn.

Assays:
Candida albicans = assay: Broth dilution MIC / antimicrobial test against Candida albicans (A.T.C.C. 10259); assay type: cell-based; settings: 25°
Source text: (§1) In testing for the anti-microbial activity five different types of organics were selected: Staphyloccoccus aureus, Escherichia coli, Pseudomonas aeruginosa, Candida albicans, and Aspergillus niger. The inclusion of Asperigillus niger and Pseudomonas aeruginosa in the inocula is recommended to ensure a wide range of protection because these ubiquitous organisms grow in a large variety of formulations and relatively resistant to antimicrobial agents. The incidence of contaminated cosmetics has been the subject of several investigations ^(6)(7). Pseudomonas was the predominant organism found.
(§2) One Gram-positive, two Gram-negative bacteria, one each of a yeast and a mold were selected for the test. These were, respectively, Staphylococcus aureus(A.T.C.C. 6538), Escherichia coli(A.T.C.C. 11229), Pseudomonas aeruginosa(A.T.C.C. 15442), Candida albicans(A.T.C.C. 10259), and Aspergillus niger(A.T.C.C. 1015).
(§3) Portions of four or five discrete colonies representative of the organisms to be tested were inoculated into 10.0 ml. of a suitable broth medium and marked accordingly. The inoculated tubes were incubated at 37° for S. aureus, E. coli, and P. aeruginosa, and at 25° for C. albicans and A. niger for 18-24 hours.
(§4) Medium: Trypticase Soy Agar(BBL) was used for bacteria, and Sabouraud Maltose Agar(BBL) for the yeast and the mold.
(§5) Inoculation of agar plates and incubation: A 10 cm. round plastic plate was used for the preparation of medium. Each plate was divided into four areas by marking on the bottom of the plate. The agar plate was streaked by the appropriate inoculation loop. Three thin loopful of inocula were applied for covering the complete agar plate. Approximately 10-15 mg. of compound to be tested was placed at the corresponding area of each inoculated plate. The plates inoculated with S. aureus, E. coli, and P. aeruginosa were incubated at 37° for 24-48 hours, and those incubated with C. albicans and A. niger were incubated at 25° for 48-72 hours. […]

Aspergillus niger = assay: Broth dilution MIC / antimicrobial test against Aspergillus niger (A.T.C.C. 1015); assay type: cell-based; settings: 25°
Source text: as §1, §2, §3
Medium: Trypticase Soy Agar(BBL) was used for bacteria, and Sabouraud Maltose Agar(BBL) for the yeast and the mold. […]

Escherichia coli = assay: Broth dilution MIC / antimicrobial test against Escherichia coli (A.T.C.C. 11229); assay type: cell-based; settings: 37°
Source text: as §1, §2, §3, §4, §5

Pseudomonas aeruginosa = assay: Broth dilution MIC / antimicrobial test against Pseudomonas aeruginosa (A.T.C.C. 15442); assay type: cell-based; settings: 37°
Source text: as §1, §2, §3, §4, §5

Staphylococcus aureus = assay: Broth dilution MIC / antimicrobial test against Staphylococcus aureus (A.T.C.C. 6538); assay type: cell-based; settings: for activity against S. aureus (in words): 37°
Source text: as §1, §2, §3, §4
Inoculation of agar plates and incubation: A 10 cm. round plastic plate was used for the preparation of medium. Each plate was divided into four areas by marking on the bottom of the plate. The agar plate was streaked by the appropriate inoculation loop. Three thin loopful of inocula were applied for covering the complete agar plate. Approximately 10-15 mg. of compound to be tested was placed at the corresponding area of each inoculated plate. The plates inoculated with S. aureus, E. coli, and P. aeruginosa were incubated at 37° for 24-48 hours, and those incubated with C. albicans and A. niger were incubated at 25° for 48-72 hours.
Interpretation and result: After incubation, if a zone of inhibition was visible around the compound placed, the susceptibility of the organism to the compound was considered to be positive. The degree of positiveness of the compound was decided by the size of the zone.
The broth dilution method was chosen for the determination of the MIC. A 10^-1 molar stock solution was prepared by dissolving or suspending the required amount of compound in the sterilized distilled water. The desired number of sterile test tubes were aseptically filled with 9.0 ml. of Trypticase Soy Broth(BBL). 1.0 ml. of the stock solution was added to the first tube and mixed thoroughly. With a sterile pipette, 1.0 ml. was transferred from the first tube to the second tube. […]

bacterial growth = assay: Preservative action in cosmetic formulations; settings: for preservation against bacterial combination: Examples I and III of U.S. Pat. No. 3,957,970, replacing the 0.05% preservative by an equal amount
Source text: The compositions of this invention are of particular utility in aqueous cosmetic formulations to inhibit bacterial growth. Reference is hereby made to cosmetic formulations as disclosed in the following U.S. Pat. Nos.: (1) 4,159,318 (2) 4,164,564, (3) 4,137,302, (4) 4,148,875, (5) 4,001,141, (6) 4,048,338, (7) 3,919,430 and (8) 3,957,970 as exemplary of formulations with which the present thioureas and thiazoles can be used; thus, Example 4 of U.S. Pat. No. 4,137,302 discloses ethyl p-dimethylaminobenzoate (0.75%).
In Example 6 of U.S. Pat. No. 4,048,338, the 0.18 parts of methyl p-hydroxybenzoate is replaced by equal parts of the compound of Example 10 on the one hand and that of Example 12 on the other hand.
Each of the foregoing U.S. Patents (1) to (8) is hereby incorporated by reference thereto.

[1] = LD50 test (acute toxicity, intraperitoneal); assay type: in vivo, Charles River CD-1 male mice; settings: 2000 mg/kg, one mouse
Procedure: The toxicity of some of the compounds was ascertained in an LD50 test.
The LD50 tests were performed for the following compounds; N-β-D-glucopyranosyl-N'-n-butylthiourea, N-β-D-glucopyranosyl-N'-benzylthiourea, N-β-D-glucopyranosyl-piperidine-1-thiocarboxamide, N-β-D-glucopyranosylthiourea, and ethyl 2-(N-β-D-glucopyranosyl)aminothiazole-4-carboxylate. The compounds were administered intraperitoneally dissolved or suspended in normal saline by 20-25 gm Charles River CD-1 male mice.
Two animals received 1000 mg/kg and one animal received 2000 mg/kg. With the exception of the animal given by ethyl 2-(N-β-D-glucopyranosyl)aminothiazole-4-carboxylate at 2000 mg/kg, all animals survived the acute effects and appeared normal after 1 week.

[2] = Example 6 of U.S. Pat. No. 4,048,338, replacing 0.18 parts of methyl p-hydroxybenzoate by equal parts

Row | SMILES | activity against C. albicans (in words) (Candida albicans) | activity against A. niger (in words) (Aspergillus niger) | activity against E. coli (in words) (Escherichia coli) | activity against P. aeruginosa (in words) (Pseudomonas aeruginosa) | activity against S. aureus (in words) (Staphylococcus aureus) | MIC (Staphylococcus aureus; Staphylococcus aureus, S. aureus A.T.C.C. 6538, broth dilution, 24-48 hours at 37°, read-out: M.I.C. (Minimal Inhibitory Concentration)) [µM] | preservative action (bacterial growth; Example 4 of U.S. Pat. No. 4,137,302, in lieu of ethyl p-dimethylaminobenzoate (0.75%)) | preservative action (bacterial growth; [2]) | preservation against bacterial combination (bacterial growth) | death [1]
1 | CCCCNC(=S)N[C@@H]1O[C@H](CO)[C@@H](O)[C@H](O)[C@H]1O [Example 2, N-β-D-Glucopyranosyl-N'-n-butylthiourea] | particularly outstanding activity | particularly outstanding activity |  |  |  |  |  |  |  | 
2 | OC[C@H]1O[C@@H](NC(=S)NCc2ccccc2)[C@H](O)[C@@H](O)[C@@H]1O [Example 5, N-β-D-Glucopyranosyl-N'-benzylthiourea] |  |  | particularly outstanding activity | particularly outstanding activity |  |  |  |  |  | 
3 | C=CCNC(=S)N[C@@H]1O[C@H](CO)[C@@H](O)[C@H](O)[C@H]1O [Example 10, N-β-D-Glucopyranosyl-N'-allylthiourea] |  |  |  |  | particularly outstanding activity | 100 (≈ 27.8 µg/mL) | excellent preservative action | excellent preservative action | excellent preservation against bacterial combination | 
4 | OC[C@H]1O[C@@H](NC(=S)N2CCCCC2)[C@H](O)[C@@H](O)[C@@H]1O [Example 11, N-β-D-Glucopyranosylpiperidine-1-thiocarboxamide] |  |  |  | particularly outstanding activity |  |  |  |  |  | 
5 | OC[C@H]1O[C@@H](NC(=S)NCc2ccc(Cl)cc2)[C@H](O)[C@@H](O)[C@@H]1O [Example 12, N-β-D-Glucopyranosyl-N'-4-chlorobenzylthiourea] | broad inhibitory activities |  | broad inhibitory activities |  | broad inhibitory activities |  |  | excellent preservative action | excellent preservation against bacterial combination | 
6 | Br.CCOC(=O)c1csc(N[C@@H]2O[C@H](CO)[C@@H](O)[C@H](O)[C@H]2O)n1 [Example 15, Ethyl 2-(N-β-D-glucopyranosyl)aminothiazole-4-carboxylate hydrobromide] | broad activities against 4 organisms | not against A. Niger | broad activities against 4 organisms | broad activities against 4 organisms | broad activities against 4 organisms |  |  |  | excellent preservation against bacterial combination | dying two days later
